{"source": "patent US8278327B2", "about": "“PDE10 inhibitors and related compositions and methods” (Omeros Corporation, priority 2006, dated 2012)", "key": {"[1]": {"target": "T1, recombinant human PDE 10A1 (Homo sapiens, UniProt Q9Y233)", "T1 construct": "made in house; host or cells: Sf9 insect cells, baculovirus", "T1 sequence (Q9Y233 1-779 isoform Q9Y233-1)": "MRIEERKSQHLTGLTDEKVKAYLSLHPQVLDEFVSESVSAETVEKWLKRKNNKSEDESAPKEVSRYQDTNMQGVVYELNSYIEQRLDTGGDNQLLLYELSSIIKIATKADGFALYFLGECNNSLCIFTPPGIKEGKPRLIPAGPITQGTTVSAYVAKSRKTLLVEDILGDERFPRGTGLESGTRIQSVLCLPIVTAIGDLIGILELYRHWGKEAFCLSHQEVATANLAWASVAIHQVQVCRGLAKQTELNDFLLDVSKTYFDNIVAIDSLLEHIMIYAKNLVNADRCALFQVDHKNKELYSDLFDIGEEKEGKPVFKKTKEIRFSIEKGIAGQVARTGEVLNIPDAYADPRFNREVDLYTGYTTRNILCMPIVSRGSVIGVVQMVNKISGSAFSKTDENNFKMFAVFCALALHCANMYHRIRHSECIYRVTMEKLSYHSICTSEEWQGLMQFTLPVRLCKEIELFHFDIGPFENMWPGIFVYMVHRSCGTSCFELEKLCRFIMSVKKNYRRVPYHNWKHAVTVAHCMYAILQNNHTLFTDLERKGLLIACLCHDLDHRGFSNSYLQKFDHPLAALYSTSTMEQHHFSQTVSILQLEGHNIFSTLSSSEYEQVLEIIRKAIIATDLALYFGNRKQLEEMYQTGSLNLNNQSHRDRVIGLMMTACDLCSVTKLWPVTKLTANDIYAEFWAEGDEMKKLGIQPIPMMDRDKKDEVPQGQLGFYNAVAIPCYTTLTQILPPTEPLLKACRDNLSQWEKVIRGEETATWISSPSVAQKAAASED", "experiment": "PDE10 biochemical assay (modified two-step method of Thompson and Appleman, or SPA with [3H]-cGMP)", "details": "PDE10 inhibition", "procedure": "Compounds of this invention may be assayed to determine their IC50 values by a modification of the two-step method of Thompson and Appleman (Biochemistry 10; 311-316; 1971). In short, cAMP is spiked with (^3H)cAMP and incubated with PDE10 and various concentrations of a compound of structure (I). After the appropriate incubation time, the reaction is terminated by heating. The mixture is then subjected to treatment with snake venom phosphatase. The phosphatase hydrolyzes any AMP in the mixture, but leaves unreacted cAMP intact. Thus, by separating cAMP from the mixture and determining its concentration (by radiography), the percent of inhibition can be determined. IO50 values can be calculated by performing the experiment at several concentrations using standard graphical means. A detailed description of the actual technique used for IC50 assays are shown in Example 8.\nThe phosphodiesterase (PDE) assay was performed using recombinant human PDE 1A3, 2A3, 3 catalytic region, 4 catalytic region, 5 catalytic region, 7A, 8A, 9A2, 10A1 and 11A1 enzymes expressed in a baculoviral system using Sf9 cells. PDE activity was measured using a modification of the two-step method of Thompson and Appleman described above which was adapted for 96 well plate format. […] The final assay volume was 110 μl with assay buffer (10 mM MgCl2; 40 mM Tris.HCl; pH 7.4). Reactions were initiated with enzyme and incubated with (^3H)—substrate and substance for 20 minutes at 30° C. The reaction was terminated by denaturing the enzyme (heating the reaction to 70° C. for 2 minutes). […] The soluble fraction (50 μl) was then added to microscint-20 (200 μl) and counted on a Top Count Plate reader. Radioactivity units were plotted against inhibitor concentration and IC50 values obtained using Graph Pad Prism software.\nAlternatively, phosphodiesterase activity was measured by scintillation proximity assay (SPA) with [^3H]-cGMP as substrate. […] Inhibition was evaluated at 8 concentrations in duplicate. […] The mixture was shaken, allowed to settle for 3 hours, and counted in a Wallac plate counter. […]"}, "[2]": {"system": "C57BL/6 male mice", "experiment": "Amphetamine-induced hyperactivity", "type": "in vivo", "details": "50 mg/kg i.p., amphetamine 5 mg/kg, vs vehicle+amph control, p<0.01"}, "[3]": {"system": "C57BL/6 male mice", "experiment": "PCP-induced hyperactivity", "type": "in vivo", "details": "PCP 5 mg/kg, p<0.001", "procedure": "Psychostimulant-induced hyperactivity is measured by injecting animals with PCP or amphetamine and monitoring the animals' activity levels in the VersaMax chambers (Accuscan Instruments, Columbus, Ohio) measuring 40×40 cm. Locomotor activity is detected by photobeam breaks as the animal crosses each beam. The animal is placed in the center of the field and left undisturbed for a period of time (20 min to 2 hr) to measure its spontaneous activity in a novel environment. Measurements used to assess locomotor activity include: horizontal activity, total distance traveled, vertical activity (rearing events—animal raises up on hindlimbs), rotation, stereotypy, and distance traveled in the center compared to total distance traveled (center:total distance ratio). Psychostimulants, including dopamine agonist amphetamine and NMDA antagonist PCP, induce psychosis-like conditions manifested as hyperactivity and increased stereotypic behavior. Known antipsychotics are able to reverse psychostimulant-induced hyperactivity and increased stereotypy."}, "[4]": {"system": "C57BL/6 male mice", "details": "50 mg/kg i.p., 30 min after injection, vs vehicle control"}, "[5]": {"system": "C57BL/6 male mice", "experiment": "Conditioned avoidance response (CAR)", "type": "in vivo", "description": "Conditioned avoidance response (CAR) is a behavioral test to evaluate antipsychotic effect of a test compound. It utilizes a shuttle box (Med Associates, St. Albans, Vt.) with two equal chambers separated by a retractable door. Each chamber is fitted with metal grid floor that is capable of delivering electric shocks independently. A computer program is used to implement the testing paradigm as well as record the animal's movement between the two chambers through infrared beam sensors. The testing paradigm is as the follows. A mouse is placed into one chamber. A light (conditioned stimulus, CS) comes on. Five seconds later, mild electric shocks (0.4 mA) (unconditioned stimulus, US) are delivered to the chamber where the mouse is located (as detected by infrared beams) until the mouse escapes to the adjacent chamber or until 10 sec has elapsed. The US and CS always co-terminate. With randomized inter-trial intervals averaging 15 sec, 30 such CS-US pairing trials are given to each mouse each day. For each trial, an escape response is registered if the mouse crosses to the other chamber after being shocked (i.e., during the 10-sec US period), and an avoidance response is registered if the mouse crosses to the other chamber during the first 5-sec CS only period. The animals are trained in such paradigm for 15-20 days, during which the average percentage of avoidance responses will improve to 60-80%. […] These trained animals are then used for compound testing using the same paradigm.\nC57BL/6 male mice were trained in the CAR paradigm to predict and avoid the noxious stimulus, reaching a plateau of approximately 20-25 avoidance responses per 30 trials (“training plateau”) each day. The mice were then injected with compound or vehicle via i.p., and 20 minutes later they were tested for 30 trials in the CAR paradigm. Vehicle treatment and compound treatment were given to the same animals on alternating days, and the effect of compound in reducing avoidance response was analyzed through within-subject comparison (paired t-test)."}, "[6]": {"system": "C57BL/6 male mice", "experiment": "Novel object recognition test (PCP-disrupted)", "type": "in vivo", "details": "10 mg/kg i.p. with PCP 5 mg/kg, tested 24 h later, p<0.01 vs PCP-treated group", "procedure": "The antipsychotic effect of a test compound may also be evaluated by a novel object recognition test. In a novel object recognition test, mice are housed singly for 1-2 days and then injected with vehicle, PCP, or PCP plus the test compound. Twenty minutes after injection, the mice are presented with and allowed to explore two identical objects for 30 minutes. At the end of the exploration period the objects are removed. Twenty-four hours later each mouse is presented with a pair of objects, one familiar and one novel. After a variable delay, the mice begin to explore the objects. The time exploring each object is measured for 4 minutes starting from the first approach to either object. The fraction of total exploration time spent studying the novel object is recorded as a measure of novelty recognition.\nAt the end of the exploration period, the objects were removed. Twenty-four hours later, each mouse was presented with a pair of objects, one familiar and one novel, and the time exploring each object was measured for 4 minutes starting from the first approach to either object."}, "[7]": {"system": "PDE10", "details": "Soderling and Beavo 2000, read-out: IC50 (50% inhibitory concentration); cited from earlier work"}, "[8]": {"details": "50 mg/kg i.p., vs vehicle+PCP control"}, "[9]": {"details": "0.2 mg/kg i.p., vs vehicle+PCP control"}}}
{"smiles": "COc1cc(/C=N/NC(=O)CC2Sc3ccccc3NC2=O)cc(OC)c1OC", "note": "(stereo not drawn) [Compound 1-1, (E)-2-(3-oxo-3,4-dihydro-2H-benzo[B][1,4]thiazin-2-yl)-N′-(3,4,5-trimethoxybenzylidene)acetohydrazide]", "values": [{"measurement": "IC50", "setting": "[1]", "value": "≤ 1000", "unit": "nM"}]}
{"smiles": "CCOc1ccc(/C=N/NC(=O)CSc2nc3ccccc3n2Cc2ccccc2)cc1OC", "note": "[Compound 4-1, (E)-2-(1-benzyl-1H-benzo[d]imidazol-2-ylthio)-N′-(4-ethoxy-3-methoxybenzylidene)acetohydrazide]", "values": [{"measurement": "IC50", "setting": "[1]", "value": "≤ 1000", "unit": "nM"}]}
{"smiles": "COc1ccc(/C=N/NC(=O)CSc2cc(C)nc3ccccc23)cc1OC", "note": "[Compound 5-1, (E)-N′-(3,4-dimethoxybenzylidene)-2-(2-methylquinolin-4-ylthio)acetohydrazide]", "values": [{"measurement": "hyperactivity induced by amphetamine", "setting": "[2]", "value": "partially but significantly reduce"}, {"measurement": "stereotypy induced by amphetamine", "setting": "[2]", "value": "partially but significantly reduce"}, {"measurement": "hyperactivity induced by PCP", "setting": "[3]; [8]", "value": "completely abolishes"}, {"measurement": "stereotypy induced by PCP", "setting": "[3]; [8]", "value": "completely abolishes"}, {"measurement": "IC50", "setting": "[1]", "value": "≤ 1000", "unit": "nM"}, {"measurement": "startle response", "setting": "[4]", "value": "does not affect"}, {"measurement": "PPI at 3 different prepulse levels", "setting": "[4]; p<0.05, p<0.01", "value": "significantly increases"}, {"measurement": "number of avoidance response", "setting": "[5]; 30 mg/kg i.p., tested 20 min later, 30 trials, p<0.001", "value": "significantly reduces"}]}
{"smiles": "COc1cc(/C=N/NC(=O)CSc2cc(C)nc3ccccc23)cc(OC)c1O", "note": "[Compound 5-110]", "values": [{"measurement": "hyperactivity induced by PCP", "setting": "[3]; 30 mg/kg", "value": "significantly reduces"}, {"measurement": "stereotypy induced by PCP", "setting": "[3]; 30 mg/kg", "value": "significantly reduces"}, {"measurement": "number of avoidance response", "setting": "[5]; 10 mg/kg, procedure as in Example 12, p<0.01", "value": "significantly reduces"}]}
{"smiles": "COc1ccc2nc(C)cc(SCC(=O)NN=Cc3cc(OC)c(OC)c(OC)c3)c2c1", "note": "[Compound 5-184]", "values": [{"measurement": "novel object recognition performance", "setting": "[6]", "value": "able to restore"}]}
{"smiles": "CC(C)Cn1c(=O)n(C)c(=O)c2[nH]cnc21", "note": "[IBMX]", "values": [{"measurement": "IC50", "setting": "[7]", "value": 2600, "unit": "nM"}]}
{"smiles": "O=C(CCCN1CCC(O)(c2ccc(Cl)cc2)CC1)c1ccc(F)cc1", "note": "[haloperidol, reference compound]", "values": [{"measurement": "hyperactivity induced by PCP", "setting": "[3]; [9]", "value": "significantly reduce"}, {"measurement": "stereotypy induced by PCP", "setting": "[3]; [9]", "value": "significantly reduce"}, {"measurement": "number of avoidance response", "setting": "[5]; 0.15 mg/kg i.p., tested 20 min later, 30 trials, p<0.001", "value": "significantly reduces"}]}
